US11793845B2, “Composition for ameliorating peripheral sensory neuropathy” (KINKI UNIVERSITY, priority 2016, dated 2023)

Tests used:
[1] = tested on: Peripheral Sensory Neuropathy Induced by Paclitaxel in Mice; assay: cold plate test, paclitaxel-induced peripheral sensory neuropathy; format: in vivo; details: paclitaxel 6 mg/kg alone; Day 3
Protocol: The effect of the Lentinus edodes mycelium extract on the paresthesia to cold stimulation was tested by performing the cold plate test. The mice in the three groups in the above (1) were put on a cold plate set to 10° C. and a response time for avoidance (a latency) was measured. The shorter latency means that the mouse avoids the cold stimulation of the cold plate more.
In the present test, the mice were divided into four groups by a difference in test objects. As in Example 1, male Balb/c mice of 6 to 7 weeks old were used. The mice were divided into a total of four groups, a control group, a paclitaxel administration group, and two different paclitaxel and Lentinus edodes mycelium extract administration groups (paclitaxel+Lentinus edodes mycelium extract administration groups). […] Further, a group in which the Lentinus edodes mycelium extract was administered to each mouse once a day at a dose of 1 g/kg (hereinafter referred to as “1 g/kg administration group”) and a group in which the Lentinus edodes mycelium extract was administered to each mouse once a day at a dose of 2 g/kg (hereinafter referred to as “2 g/kg administration group”) were prepared.
Evaluation was performed in the same manner as in the test with oxaliplatin. Referring to FIG. 4, the horizontal axis indicates the elapsed time after administration (days) and the vertical axis indicates the avoidance response time (seconds). Open circles with a solid line represent the control group. Filled circles with a solid line represent the group in which only paclitaxel was administered. Open squares with a dash line and filled squares with a dash line represent the groups in which paclitaxel and the Lentinus edodes mycelium extract were administered at the same time (paclitaxel+Lentinus edodes mycelium extract administration groups). […] When the difference with the control group was determined to be significant using a significance level of 5%, the data were marked by “*”. […]

[2] = tested on: Peripheral Sensory Neuropathy Induced by Paclitaxel in Mice; assay: von Frey test, paclitaxel-induced peripheral sensory neuropathy; format: in vivo; details: paclitaxel 6 mg/kg once a week alone, compared with control group; three days after the administration
Description: The mice in the three groups in the above (1) were put in a cage and a filament having a strength of 0.16 g was pressed on the plantar surface of the leg to measure the number of times (a score) of avoidance response.
Male Balb/c mice of 6 to 7 weeks old were used as in Example 1. The mice were divided into three groups: a control group, a paclitaxel administration group, and a paclitaxel and Lentinus edodes mycelium extract administration group (paclitaxel+Lentinus edodes mycelium extract administration group). Paclitaxel was administered to each mouse once a day at a dose of 6 mg/kg. Further, the Lentinus edodes mycelium extract was administered to each mouse once a day at a dose of 2 g/kg.
Further, the number of times of administration was set to once a week (on Day 0, Day 7, and Day 14) for paclitaxel and daily (from Day 0 to Day 15) for the Lentinus edodes mycelium extract in both the von Frey test and the cold plate test below.
Evaluation was performed in the same manner as in the test with oxaliplatin. Referring to FIG. 3, the horizontal axis indicates an elapsed time after administration (days) and the vertical axis indicates the avoidance response (scores). Open circles with a solid line represent the control group. Filled circles with a solid line represent the group in which only paclitaxel was administered. Open squares with a dash line represent the group in which paclitaxel and the Lentinus edodes mycelium extract were administered (paclitaxel+Lentinus edodes mycelium extract administration group). When the difference with the control group was determined to be significant using a significance level of 5%, the data were marked by “*”.
In the present test, the mice were divided into six groups by a difference in test objects. As in Example 1, male Balb/c mice of 6 to 7 weeks old were used. […]

- latency to the cold stimulation (avoidance response time), cold plate test [1]: significantly reduced
- avoidance response (scores), von Frey test [2]: significantly increased
SMILES: CC(=O)O[C@H]1C(=O)[C@@]2(C)[C@H]([C@H](OC(=O)c3ccccc3)[C@]3(O)C[C@H](OC(=O)[C@H](O)[C@@H](NC(=O)c4ccccc4)c4ccccc4)C(C)=C1C3(C)C)[C@]1(OC(C)=O)CO[C@@H]1C[C@@H]2O [paclitaxel]
